The text below walks through data of ChEMBL document CHEMBL3046182, “Development of a rapid resistance monitoring bioassay for codling moth larvae” (2012).

The structures appear in SMILES notation. Values after ≈ are worked out from the molar mass of the structure shown.

Holding throughout (assay type): functional
In assay [1] the test system is Cydia pomonella. The assay can be described thus: Insecticidal activity against po dosed Cydia pomonella (codling moth) lab-s neonate measured after 4 days.
Assay [2] concerns Cydia pomonella. As to the kind of experiment: Insecticidal activity against po dosed fourth-instar larvae of Cydia pomonella (codling moth) lab-s measured after 4 days.
In assay [3] the test system is Cydia pomonella. The assay can be described thus: Insecticidal activity against fourth-instar larvae of Cydia pomonella (codling moth) lab-s compound applied topically measured after 4 days. Conditions: topical, 96 h.
Assay [4] relates to Cydia pomonella. The assay can be described thus: Insecticidal activity against Cydia pomonella (codling moth) lab-s neonate compound applied topically measured after 4 days. Conditions: topical, 96 h.
Assay [5] deals with Cydia pomonella. As to the kind of experiment: Resistant ratio of LC50 for fourth-instar larvae of Cydia pomonella (codling moth) lab-s to fourth-instar larvae of Cydia pomonella (codling moth) Glibert.
Assay [6] relates to Cydia pomonella. As to the kind of experiment: Insecticidal activity against po dosed fourth-instar larvae of Cydia pomonella (codling moth) Clear Creek abandoned measured after 4 days.
Assay [7] relates to Cydia pomonella. The assay can be described thus: Insecticidal activity against po dosed 10 day-old larvae of Cydia pomonella (codling moth) lab-s measured after 4 days.
The subject of assay [8] is Cydia pomonella. The assay can be described thus: Insecticidal activity against po dosed fourth-instar larvae of Cydia pomonella (codling moth) Gilbert measured after 4 days.
For assay [9], the system named is Cydia pomonella. As to the kind of experiment: Insecticidal activity against po dosed Cydia pomonella (codling moth) Clear Creek abandoned neonate measured after 4 days.
The subject of assay [10] is Cydia pomonella. As to the kind of experiment: Insecticidal activity against po dosed 10 day-old larvae of Cydia pomonella (codling moth) lab-s reared on apple assessed as mortality measured after 4 days.
Assay [11] relates to Cydia pomonella. The assay can be described thus: Resistant ratio of LC50 for fourth-instar larvae of Cydia pomonella (codling moth) Holt to fourth-instar larvae of Cydia pomonella (codling moth) Glibert.
Assay [12] deals with Cydia pomonella. As to the kind of experiment: Insecticidal activity against po dosed 10 day-old larvae of Cydia pomonella (codling moth) Gilbert reared on apple assessed as mortality measured after 4 days.
For assay [13], the system named is Cydia pomonella. The assay can be described thus: Insecticidal activity against po dosed fourth-instar larvae of Cydia pomonella (codling moth) Holt measured after 4 days.
For assay [14], the system named is Cydia pomonella. The assay can be described thus: Insecticidal activity against po dosed Cydia pomonella (codling moth) Gilbert neonate measured after 4 days.
Assay [15] deals with Cydia pomonella. As to the kind of experiment: Insecticidal activity against po dosed 10 day-old larvae of Cydia pomonella (codling moth) Owensby reared on apple assessed as mortality measured after 4 days.
For assay [16], the system named is Cydia pomonella. As to the kind of experiment: Resistant ratio of LC50 for Cydia pomonella (codling moth) Holt neonate to Cydia pomonella (codling moth) Glibert neonate.
In assay [17] the test system is Cydia pomonella. As to the kind of experiment: Insecticidal activity against po dosed Cydia pomonella (codling moth) Holt neonate measured after 4 days.
Assay [18] relates to Cydia pomonella. The assay can be described thus: Resistant ratio of LC50 for Cydia pomonella (codling moth) lab-s neonate to Cydia pomonella (codling moth) Glibert neonate.
Assay [19] deals with Cydia pomonella. The assay can be described thus: Insecticidal activity against po dosed 10 day-old larvae of Chlorantraniliprole-selected Cydia pomonella (codling moth) reared on apple assessed as mortality measured after 4 days.
For assay [20], the system named is Cydia pomonella. As to the kind of experiment: Insecticidal activity against po dosed 15 day-old larvae of Cydia pomonella (codling moth) reared on apple assessed as mortality measured after 4 days.
In assay [21] the test system is Cydia pomonella. As to the kind of experiment: Insecticidal activity against po dosed 20 day-old larvae of Cydia pomonella (codling moth) reared on apple assessed as mortality measured after 4 days.
The subject of assay [22] is Cydia pomonella. The assay can be described thus: Insecticidal activity against po dosed 11 day-old larvae of spinetoram-selected Cydia pomonella (codling moth) reared on apple assessed as mortality measured after 4 days.
In assay [23] the test system is Cydia pomonella. As to the kind of experiment: Insecticidal activity against po dosed 15 day-old larvae of Cydia pomonella (codling moth) lab-s reared on apple assessed as mortality measured after 4 days.

Regarding `CCO[C@@H]1[C@@H](OC)[C@H](C)O[C@@H](O[C@@H]2C[C@H]3CC[C@@H]4[C@@H](C=C5C(=O)[C@H](C)[C@@H](O[C@H]6CC[C@H](N(C)C)[C@@H](C)O6)CCC[C@H](CC)OC(=O)C[C@H]54)[C@@H]3C2)[C@@H]1OC.CCO[C@@H]1[C@@H](OC)[C@H](C)O[C@@H](O[C@H]2C[C@H]3[C@@H]4C=C5C(=O)[C@H](C)[C@@H](O[C@H]6CC[C@H](N(C)C)[C@@H](C)O6)CCC[C@H](CC)OC(=O)C[C@H]5[C@@H]4C=C(C)[C@@H]3C2)[C@@H]1OC`, the LC50 in the assay on Cydia pomonella [1] turned out to be 0.09 µg/mL; in the assay with Cydia pomonella [2], 0.16 µg/mL.
As to `C/C(=N\C#N)N(C)Cc1ccc(Cl)nc1` [ACETAMIPRID], the LC50 in the assay on Cydia pomonella [3] stood at 1.12 µg/mL (≈ 5.03 µM); in the assay with Cydia pomonella [4], 0.26 µg/mL (≈ 1.17 µM).
As for `CNC(=O)c1cc(Cl)cc(C)c1NC(=O)c1cc(Br)nn1-c1ncccc1Cl` [CHLORANTRANILIPROLE], the LC50 in the assay with Cydia pomonella [1] amounted to 0.2 µg/mL (≈ 0.414 µM); in the assay on Cydia pomonella [2], 0.19 µg/mL (≈ 0.393 µM).
With `COc1cccc(C(=O)NN(C(=O)c2cc(C)cc(C)c2)C(C)(C)C)c1C` [METHOXYFENOZIDE], the RatioLC50 in the assay on Cydia pomonella [5] is listed as 6.6; in the assay with Cydia pomonella [11] it was 16.7; in the assay with Cydia pomonella [16], 24; with Cydia pomonella [18], 8. Moreover, the LC50 came out at 1.35 µg/mL (≈ 3.66 µM) with Cydia pomonella [6]; 15.2 µg/mL (≈ 41.3 µM) in the assay on Cydia pomonella [8]; 95 µg/mL (≈ 258 µM) with Cydia pomonella [9]; 38.7 µg/mL (≈ 105 µM) in the assay with Cydia pomonella [13]; 9.5 µg/mL (≈ 25.8 µM) with Cydia pomonella [14]; 28.5 µg/mL (≈ 77.3 µM) in the assay with Cydia pomonella [17]. The values for the LC50 in the assay with Cydia pomonella [1] and with Cydia pomonella [2] were 1.2 µg/mL (≈ 3.26 µM) and 2.3 µg/mL (≈ 6.24 µM), respectively. Further, the LC99 with Cydia pomonella [6] turned out to be 28.38 µg/mL; in the assay with Cydia pomonella [8], 202 µg/mL; in the assay on Cydia pomonella [9], 14.57 µg/mL; with Cydia pomonella [13] it was 5061.9 µg/mL; in the assay with Cydia pomonella [14], 389.4 µg/mL; with Cydia pomonella [17] it was 5320.8 µg/mL. The figures for the LC99 in the assay with Cydia pomonella [1] and in the assay with Cydia pomonella [2] were 14.15 µg/mL and 18.27 µg/mL, respectively. The molecule also yielded an LC95 in the assay with Cydia pomonella [7] of 10 µg/mL (≈ 27.1 µM). Also, the mortality with Cydia pomonella [10] is given as 99.2%; in the assay with Cydia pomonella [12], 93.6%; in the assay with Cydia pomonella [15] it was 31.3%; in the assay with Cydia pomonella [19], 100%; with Cydia pomonella [20], 55.1%; with Cydia pomonella [21], 50%. For the same molecule, the mortality with Cydia pomonella [22] worked out at 83.3%; in the assay with Cydia pomonella [23] it was 98.4%.
Consider `O=C(NC(=O)c1c(F)cccc1F)Nc1ccc(OC(F)(F)C(F)OC(F)(F)F)c(Cl)c1` (configuration not stated) [NOVALURON], for which the LC50 with Cydia pomonella [1] turned out to be 1.08 µg/mL (≈ 2.19 µM); with Cydia pomonella [2], 1.16 µg/mL (≈ 2.35 µM).
